According to EP2653477B1, “SCORPION ACTIVE PEPTIDES AND PREPARATION METHODS AND APPLICATIONS THEREOF” (Wuhan More Biotechnology Co., Ltd., priority 2010, dated 2012):
Bridge positions count the residues as written; N and C are the ends. Peptide text beside a SMILES is read from it.

Experiments:
[1] = target: T1, potassium channel Kv1.3 (Homo sapiens, UniProt P22001); test: whole-cell patch clamp, inhibition of Kv1.3 current in transfected COS-7 cells; assay type: cell-based; conditions: potassium channel Kv1.3 in COS-7 cells, read-out: polypeptide concentrations that inhibit the current by half (IC50 value)
T1 construct: expressed in transfected cells; host or cells: COS-7 cells, selected with 0.8 mg/mL geneticin
Procedure: COS-7 cells were cultured in a DMEM medium containing 10% fetal calf serum, at 37° C, 5% CO2. The recombinant plasmids of potassium channel Kv1.3 were transfected by using a Sofast™ transfection kit, and the transfected cells were selectively cultured in a medium containing 0.8 mg/mL geneticin. The pharmacological activities of scorpion active polypeptides ADMR-011, ADMR-016, ADMR-019, ADMR-023 and ADMR-028 were tested and analyzed by using an instrument of whole-cell patch clamp (EPC-10 dual-channel patch clamp amplifier HEKA, Elektronik, Lambrecht, Germany). The setting of the experimental parameters, the collecting of data, and the applying of stimulus were all controlled by Pulse software (Elektronik, Lambrecht, Germany). The filter of the instrument was set to be 10 kHz (Bessel), and the electrode impedance was 2∼5 MΩ. After the formation of giga-seal (1∼5 GΩ) between the electrode and cell membrane, an automatic c-fast was performed, and the membrane was broken by slightly applying negative pressure, then an automatic c-slow was performed. At a holding potential of -70 mV, depolarizing pulses, incrementing in 10 mV steps, with a step width of 80 ms , were given to stimulate from -60 mV to +50 mV, and the condition of current was observed. The polypeptides ADMR-011, ADMR-016 and ADMR-019 were accurately perfused, which was achieved by MPS-2 (INBIO Inc, Wuhan, China) perfusing system. After dissolving the three scorpion active polypeptides, they were applied by spraying via DAD Drug Application System (ALA), and the tip of the tube for drug application was about 100 µm away from the cell being recorded.
It can be known from Figure 16 to Figure 20 that, the pharmacological activity of ADMR-011 on potassium channel Kvl.3 was 91 pM, the pharmacological activity of ADMR-016 on potassium channel Kvl.3 was 2.58 nM, the pharmacological activity of ADMR-019 on potassium channel Kv1.3 was 1.41 nM, and the pharmacological activity of ADMR-023 and ADMR-028 on potassium channel Kvl.3 were 0.49 nM and 0.65 nM, respectively. Therefore, they are polypeptides with potent activity that are currently found internationally.

[2] = test system: rheumatoid arthritis; test: pristane-induced rheumatoid arthritis in SD rats, joint score and hind foot plantar swelling; assay type: in vivo; design: key to Score of joint: clinical score 1-4: 1 joint red/swollen=1 ... severe whole-limb arthritis=4; conditions: x±s, n=10; for Score of joint: arthritis rats, polypeptides 100 µg·kg^-1 (methotrexate 1.75 µg·kg^-1) subcutaneously once every day, score 1-4; for The swelling degree after the inflammation: volume difference of hind foot before and after the modeling
Procedure: […] Female (♀) specific pathogen free (SPF) inbred line SD rats (Wuhan University Laboratory Animal Center), body weight 150±10 g, were selected, and pristane was injected intradermally at the base of the tail of rats in experimental groups at a dose of 0.2 ml/rat, after they were acclimatized in a clean-grade environment for 1 week. Rheumatoid arthritis appeared after the rats were raised for only 2 weeks.
The rats having arthritis were randomized into: normal control group (negative control group), model negative control group (model rat + normal saline), model positive control group (model rat + methotrexate), administration group A (model rat + ADMR-011 polypeptide), administration group B (model rat + ADMR-016 polypeptide), administration group C (model rat + ADMR-019 polypeptide), administration group D (model rat + ADMR-023 polypeptide), and administration group E (model rat + ADMR-028 polypeptide), 10 rats for each group. The administration groups were injected subcutaneously at a dose of 100 µg·kg^-1, once every day in the morning, and administered continuously; the normal control group and the model negative control group were injected subcutaneously with equivalent amount of normal saline; and the model positive control group were injected subcutaneously with methotrexate (MTX) at a dose of 1.75 µg·kg^-1, once every day, and administered continuously.
The highest clinical score for each animal was recorded, and the average value of them was taken to be the average clinical score. The scoring criteria were: one joint of a rat was red and swollen, 1 point; two joints of a rat were red and swollen, 2 points; all the joints of a rat were red and swollen, 3 points; severe arthritis in the entire limb of a rat, 4 points. Table 2. Arthritis scores for rats of various experimental groups (-x±s)
From day 8 of the experiment, the hind foot plantar volume of the rat was measured and recorded every other day for 21 consecutive days, and the swelling degree (mL) was calculated according to the volume difference before and after the modeling. Table 3. The swelling degree of rats in various experimental groups (-x±s)

[3] = test system: Wistar rat EAE model; test: EAE (multiple sclerosis) model in Wistar rats induced by GPSCH-CFA, clinical scoring; assay type: in vivo; conditions: 100 µg·kg^-1 subcutaneously once every day, x±s, n=10, score 0-5
Source text: Experimental animals: female inbred line Wistar rats (6∼8 week old, body weigh 150±10 g) and guinea pigs (300∼400 g, purchased from Wuhan University Laboratory Animal Center) were selected.
Formulating a mixed emulsion of whole spinal cord homogenate - Freund's complete adjuvant (GPSCH-CFA): a guinea pig was executed, and the spinal cord was rapidly removed, and prepared into 50% PBS homogenate by a ultrasonic disruptor (Sonics & Materials Inc, America), which was mixed with equal amount of Freund's complete adjuvant (BCG vaccine 10 mg/ml), and was pushed back and forth with syringes until forming a water-in-oil emulsion.
Wistar rat EAE model induced by EAE: GPSCH-CFA emulsion was injected intradermally into the foot pads of both the hind legs of Wistar rats, or simultaneously injected intradermally about 1×10^10 pertussis vaccine. The rats were weighed every day, and observed for their neurological symptoms. Experimental autoimmune encephalomyelitis appeared after the rats had been raised for 2 weeks.
The rats with experimental autoimmune encephalomyelitis (EAE) were divided into […] groups randomly: normal control group (negative control group), model control group (model rats + normal saline), administration group A (model rats + ADMR-011 polypeptide), administration group B (model rats + ADMR-016 polypeptide), administration group C (model rats + ADMR-019 polypeptide), administration group D (model rats + ADMR-023 polypeptide), and administration group E (model rats + ADMR-028 polypeptide), 10 rats for each group. For the administration groups, polypeptides ADMR-011, ADMR-016, ADMR-019, ADMR-023 and ADMR-028 were injected subcutaneously respectively at a dose of 100 µg·kg^-1, once every day in the morning. For the normal control group and the model control group, equivalent amount of normal saline was injected subcutaneously, and administered continuously. […] The highest clinical score for each animal was recorded, and the average value of them was taken to be the average clinical score.
The scoring criteria were: without any clinical symptom, 0 point; disappearance of tension in the tail, and observable mild awkward gait, 1 point; weakness in both the hind limbs, which can recover after passive body flipping, 2 points; paralysis in both the hind limbs, which can not recover after passive body flipping, 3 points; tetraplegia accompanied by incontinence of urine and feces, 4 points; moribund state or death, 5 points. Table 1. Scores for rats of various experimental groups in the EAE model (-x±s)

[4] = test system: Kunming mice; test: toxicity study in mice, single intraperitoneal injection, 7 days observation; assay type: in vivo; conditions: 10 mg/kg intraperitoneally once (100 times the dose for animal model), observed 7 days
Procedure: 18∼20 g Kunming mice were selected, and divided into 4 groups, 8 male mice and 8 female mice for each group. The lyophilized powders of scorpion active polypeptides ADMR-011, ADMR-016, ADMR-019, ADMR-023 and ADMR-028 were dissolved with normal saline respectively, and the 3 groups of mice were injected intraperitoneally once respectively with polypeptide solution at a dose of 10 mg/kg (100 times of the dose for animal model), and the fourth group were injected with equivalent amount of normal saline as control.
After the administration, the respiration, motor and heartbeat in animals of all the groups were all normal, without significant abnormal reaction. 7 days after the administration, all the animals were conducted gross anatomy to observe the volume, color and texture of the main organs (heart, liver, spleen, lung, and kidney), and there was no macroscopic lesion. There were no significant difference between the 3 administration groups and the normal saline group.

T1 sequence (P22001 whole entry): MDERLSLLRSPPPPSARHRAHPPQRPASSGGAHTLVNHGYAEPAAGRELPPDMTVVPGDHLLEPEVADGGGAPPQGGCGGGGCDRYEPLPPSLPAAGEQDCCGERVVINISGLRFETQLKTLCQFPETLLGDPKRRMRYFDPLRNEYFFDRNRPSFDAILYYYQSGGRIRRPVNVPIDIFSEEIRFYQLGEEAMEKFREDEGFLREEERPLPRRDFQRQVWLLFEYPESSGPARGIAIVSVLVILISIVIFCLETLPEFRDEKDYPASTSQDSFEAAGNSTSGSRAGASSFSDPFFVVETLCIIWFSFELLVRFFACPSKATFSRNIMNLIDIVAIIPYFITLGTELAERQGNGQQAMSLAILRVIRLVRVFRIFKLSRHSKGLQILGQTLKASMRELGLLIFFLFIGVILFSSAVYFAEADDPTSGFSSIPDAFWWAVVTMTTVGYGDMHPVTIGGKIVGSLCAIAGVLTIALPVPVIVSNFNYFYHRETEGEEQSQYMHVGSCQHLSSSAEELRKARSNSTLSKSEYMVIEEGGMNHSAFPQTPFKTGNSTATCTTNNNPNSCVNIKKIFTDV

## CC[C@H](C)[C@@H]1NC(=O)CNC(=O)[C@H](CCC(=O)O)NC(=O)[C@@H]2CSSC[C@@H](C(=O)N[C@@H](Cc3ccc(O)cc3)C(=O)N[C@@H](CCCNC(=N)N)C(=O)O)NC(=O)[C@H](C(C)C)NC(=O)[C@@H]3CSSC[C@H](NC(=O)[C@H](CCC(=O)O)NC(=O)[C@H](CO)NC(=O)[C@H](CO)NC(=O)CNC(=O)[C@H](CC(N)=O)NC(=O)[C@@H](NC(=O)[C@H](CCC(=O)O)NC(=O)[C@H](CCCCN)NC(=O)[C@H](CO)NC(=O)[C@@H](NC(=O)[C@H](Cc4ccc(O)cc4)NC(=O)[C@@H](NC(=O)[C@@H](N)CCC(N)=O)[C@@H](C)CC)[C@@H](C)O)CSSC[C@H](NC(=O)[C@H](CCCCN)NC(=O)CNC(=O)[C@H](CO)NC(=O)[C@H](CCCNC(=N)N)NC(=O)[C@H](CCCCN)NC(=O)CNC(=O)[C@H]([C@@H](C)O)NC1=O)C(=O)N[C@@H]([C@@H](C)CC)C(=O)N[C@@H](CC(N)=O)C(=O)N[C@@H](CCCCN)C(=O)N[C@@H](CCCCN)C(=O)N3)C(=O)N[C@@H](Cc1ccc(O)cc1)C(=O)N[C@@H](CO)C(=O)N[C@@H](Cc1c[nH]cn1)C(=O)N2 [ADMR-011] (H-QIYTSKECNGSSECYSHCEGITGKRSGKCINKKCVCYR-OH; disulfide 8-29, 14-34, 18-36 (inferred); N-terminus and C-terminus assumed)
[1]
  IC50: 0.091 nM
[2]; 10 d
  Score of joint: 1.63±0.57
[2]; 15 d
  Score of joint: 2.07±0.65
[2]; 21 d
  Score of joint: 1.62±0.59
[2]; d8
  The swelling degree after the inflammation: 0.041 ± 0.012 mL
[2]; d15
  The swelling degree after the inflammation: 0.21 ± 0.06 mL
[2]; d22
  The swelling degree after the inflammation: 0.29 ± 0.09 mL
[2]; d28
  The swelling degree after the inflammation: 0.24 ± 0.13 mL
[3]; 8 d
  Average clinical scores: 0.47±0.18
[3]; 10 d
  Average clinical scores: 0.75±0.21
[3]; 12 d
  Average clinical scores: 0.83±0.35
[3]; 14 d
  Average clinical scores: 0.95±0.37
[4]
  toxicity in mice: no significant toxicity

## CC[C@H](C)[C@H](NC(=O)CNC(=O)[C@@H](N)C(C)C)C(=O)N[C@@H](CC(N)=O)C(=O)N[C@H](C(=O)N[C@@H](CCC(N)=O)C(=O)N[C@H]1CSSC[C@@H]2NC(=O)[C@H](CCC(N)=O)NC(=O)CNC(=O)[C@H](Cc3ccccc3)NC(=O)[C@H](CCCNC(=N)N)NC(=O)[C@H](CCSC)NC(=O)CNC(=O)[C@H](C)NC(=O)[C@H](CC(=O)O)NC(=O)[C@H](CCCCN)NC(=O)[C@@H]3CSSC[C@@H](C(=O)N[C@H](C(=O)N4CCC[C@H]4C(=O)N[C@@H](CCCCN)C(=O)O)[C@@H](C)O)NC(=O)[C@H](CC(=O)O)NC(=O)[C@H](CSSC[C@H](NC(=O)[C@H](CCC(N)=O)NC(=O)CNC(=O)[C@H](CO)NC(=O)[C@H]([C@@H](C)O)NC(=O)[C@H](CC(N)=O)NC1=O)C(=O)N[C@@H](CC(C)C)C(=O)N[C@@H](CCCCN)C(=O)N1CCC[C@H]1C(=O)N3)NC(=O)[C@H](CCCCN)NC(=O)CNC(=O)[C@H](CC(N)=O)NC(=O)[C@H]([C@@H](C)CC)NC2=O)C(C)C [ADMR-016] (H-VGINVQCNTSGQCLKPCKDAGMRFGQCINGKCDCTPK-OH; disulfide 7-27, 13-32, 17-34 (inferred); N-terminus and C-terminus assumed)
[1]
  IC50: 2.58 nM
[2]; 10 d
  Score of joint: 1.84±0.71
[2]; 15 d
  Score of joint: 2.24±0.53
[2]; 21 d
  Score of joint: 1.96±0.62
[2]; d8
  The swelling degree after the inflammation: 0.037 ± 0.012 mL
[2]; d15
  The swelling degree after the inflammation: 0.25 ± 0.07 mL
[2]; d22
  The swelling degree after the inflammation: 0.37 ± 0.08 mL
[2]; d28
  The swelling degree after the inflammation: 0.33 ± 0.12 mL
[3]; 8 d
  Average clinical scores: 0.50±0.23
[3]; 10 d
  Average clinical scores: 0.87±0.34
[3]; 12 d
  Average clinical scores: 1.31±0.42
[3]; 14 d
  Average clinical scores: 1.21±0.49
[4]
  toxicity in mice: no significant toxicity
